Publication PMC6204753, “Non-native autoinducer analogs capable of modulating the SdiA quorum sensing receptor in Salmonella enterica serovar Typhimurium” (Beilstein Journal of Organic Chemistry, 2018)

Tests used:
SdiA [1] = target: T1, SdiA (Salmonella enterica subsp. enterica serovar Typhimurium, UniProt O66040); test: S. Typhimurium-pJNS25 SdiA reporter, agonism (luminescence); format: cell-based; settings: for Emax: read-out: activation (%); for EC50: agonism dose–response, read-out: EC50
Excerpt: (§1) Biological assays for SdiA activity. Cell-based reporter strains that rely on detecting the transcriptional activity of LuxR-type receptors are commonly used to assess the activity of exogenous ligands. We used the S. Typhimurium-pJNS25 reporter strain constructed by Smith and Ahmer and also used by Janssens et al. to examine SdiA activity. This strain naturally produces SdiA and contains a reporter plasmid with the promoter region for srgE fused to the luxABCDE operon of V. fischeri (see Experimental section for details of all strains and plasmids). SdiA activity is thus reported by the production of luciferase and resulting bioluminescence. We also prepared an SdiA reporter in E. coli (JLD271-pJN105SE-pSC11SE) to examine S. Typhimurium SdiA activity in an alternate background and with a different reporter gene output. […] This reporter construct uses an arabinose inducible promoter to produce S. Typhimurium SdiA and the promoter region for srgE fused to lacZ to report SdiA activity. SdiA activity is then measured using standard β-galactosidase assays. In both reporter strains, signal was normalized to the difference between the positive control (10 μM OOHL) and the negative control (1% DMSO; no compound).
(§2) Salmonella SdiA reporter assay. S. Typhimurium-pJNS25 was grown 16–18 h overnight in LB, diluted 1:100 in fresh LB medium, and then incubated for 6 h at 37 °C with shaking at 200 rpm in the presence of compounds (1% DMSO). […] All compounds were screened at 100 μM and 1 μM in triplicate in agonism and antagonism assays. […] Dose–response analyses were performed by preparing dilutions of compounds in DMSO and testing each concentration in the agonism or antagonism assays. Competition dose–response assays (data in Figure 5) were performed in the same manner as the antagonism assays, except instead of OOHL being added to the subculture, the antagonist being tested was added. Non-linear regression curve fits were generated using GraphPad Prism software (version 6) using variable slope (four parameter) dose–response analysis.

SdiA [2] = target: T1, SdiA; test: S. Typhimurium-pJNS25 SdiA reporter, competitive antagonism against 10 nM L-OOHL; format: cell-based; settings: for inhibition at 1 µM / Antagonism 1 μM Inhibition (%): 1 μM compound; for inhibition at 1 µM / inhibition at 100 µM / Antagonism 1 μM Inhibition (%) / Antagonism 100 μM Inhibition (%): average ± STD, change in activity from 10 nM 2 (OOHL); for inhibition at 1 µM: read-out: Antagonism 1 μM Inhibition (%); for inhibition at 100 µM / Antagonism 100 μM Inhibition (%): 100 μM compound; for inhibition at 100 µM: read-out: Antagonism 100 μM Inhibition (%); for Emax: maximal inhibition, 100% minus lowest % activity in presence of 10 nM L-OOHL (2), read-out: inhibition (%)
Excerpt: as §1, §2

[3] = maximal activation of the antagonists (partial agonism), Table 3
[4] = maximal activity (efficacy) from agonism dose–response, 10 μM OOHL = 100%, DMSO = 0%

T1 sequence (O66040 entry or part of it): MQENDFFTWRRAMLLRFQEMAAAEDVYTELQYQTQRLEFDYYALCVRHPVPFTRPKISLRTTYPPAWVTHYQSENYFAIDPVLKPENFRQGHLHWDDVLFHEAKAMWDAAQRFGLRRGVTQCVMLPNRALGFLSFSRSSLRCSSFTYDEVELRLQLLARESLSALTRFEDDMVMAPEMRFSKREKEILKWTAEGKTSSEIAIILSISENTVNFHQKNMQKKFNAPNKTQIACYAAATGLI

O=C(Cc1ccc(-c2ccccc2)cc1)N[C@H]1CCOC1=O [C18]
Emax (SdiA [1]; [3]): 48% | inhibition at 1 µM (SdiA [2]): 11 ± 3% | inhibition at 100 µM (SdiA [2]): 52 ± 10% | Emax (SdiA [2]): 40%

O=C(Cc1cccc([N+](=O)[O-])c1)N[C@H]1CCSC1=O [F11]
EC50 (SdiA [1]): 2.47 nM | Emax (SdiA [1]; [4]): 97% | fold increase (SdiA [1]; potency of thiolactone over corresponding lactone (EC50 ratio)): 11.5 | inhibition at 1 µM (SdiA [2]): -11 ± 7% | inhibition at 100 µM (SdiA [2]): -16 ± 13%

N#Cc1cccc(CC(=O)N[C@H]2CCOC2=O)c1 [E5]
EC50 (SdiA [1]): 62.2 nM | Emax (SdiA [1]; [4]): 73% | inhibition at 1 µM (SdiA [2]): 18 ± 8% | inhibition at 100 µM (SdiA [2]): -8 ± 4%

CCCCCCCCCCCCOc1ccc(C(=O)N[C@H]2CCOC2=O)cc1 [R9]
Emax (SdiA [1]; [3]): 6% | inhibition at 1 µM (SdiA [2]): 22 ± 10% | inhibition at 100 µM (SdiA [2]): 42 ± 13% | Emax (SdiA [2]): 63%

O=C(Cc1cccc([N+](=O)[O-])c1)N[C@H]1CCOC1=O [C14]
EC50 (SdiA [1]): 28.3 nM | inhibition at 1 µM (SdiA [2]): 0% | inhibition at 100 µM (SdiA [2]): -17 ± 9%

CSc1ccc(CC(=O)N[C@H]2CCOC2=O)cc1 [E6]
Emax (SdiA [1]; [3]): 74% | inhibition at 1 µM (SdiA [2]): 25 ± 16% | inhibition at 100 µM (SdiA [2]): 44 ± 13% | Emax (SdiA [2]): 49%

CCCCCC(=O)N[C@H]1CCOC1=O [A2]
EC50 (SdiA [1]): 20.9 nM | Emax (SdiA [1]; [4]): 81% | inhibition at 1 µM (SdiA [2]): 15 ± 4% | inhibition at 100 µM (SdiA [2]): 3 ± 1%

O=C(CC1CCCC1)N[C@H]1CCOC1=O [B12]
EC50 (SdiA [1]): 54.7 nM | Emax (SdiA [1]; [4]): 93% | inhibition at 1 µM (SdiA [2]): 7 ± 7% | inhibition at 100 µM (SdiA [2]): 14 ± 9%

Cc1nc(-c2ccccc2)oc1CC(=O)N[C@H]1CCOC1=O [D4]
Antagonism 1 μM Inhibition (%) (SdiA [2]): 28 ± 13% | Antagonism 100 μM Inhibition (%) (SdiA [2]): -6 ± 4%

O=C(NCc1cc(Br)cc(Br)c1OC(=O)c1ccccc1[N+](=O)[O-])c1ccccc1Cl [19P, reference compound]
Antagonism 1 μM Inhibition (%) (SdiA [2]): 39 ± 16% | Antagonism 100 μM Inhibition (%) (SdiA [2]): 25 ± 16%

COc1cccc(CC(=O)N[C@H]2CCOC2=O)c1 [E2]
Antagonism 1 μM Inhibition (%) (SdiA [2]): -5 ± 1% | Antagonism 100 μM Inhibition (%) (SdiA [2]): -8 ± 14%

CCCCCCCCCCCC(=O)N[C@H]1CCSC1=O [F4]
Antagonism 1 μM Inhibition (%) (SdiA [2]): -2 ± 11% | Antagonism 100 μM Inhibition (%) (SdiA [2]): 2 ± 5%

O=C(N[C@H]1CCOC1=O)c1cnn(-c2ccccc2)c1C(F)(F)F [D9]
Antagonism 1 μM Inhibition (%) (SdiA [2]): 26 ± 6% | Antagonism 100 μM Inhibition (%) (SdiA [2]): 9 ± 1%

COc1cc(C(C)=O)ccc1OCC(=O)N[C@H]1CCOC1=O [D16]
Antagonism 1 μM Inhibition (%) (SdiA [2]): 19 ± 6% | Antagonism 100 μM Inhibition (%) (SdiA [2]): 3 ± 6%

CCCCCCCCCCCCCC(=O)CC(=O)N[C@H]1CCOC1=O [H25]
Antagonism 1 μM Inhibition (%) (SdiA [2]): 1 ± 13% | Antagonism 100 μM Inhibition (%) (SdiA [2]): -9 ± 15%

CCCCCCC(=O)N[C@H]1CCSC1=O [F6]
Antagonism 1 μM Inhibition (%) (SdiA [2]): 5 ± 5% | Antagonism 100 μM Inhibition (%) (SdiA [2]): -2 ± 7%

O=C(N[C@H]1CCOC1=O)c1ccccc1 [B8]
Antagonism 1 μM Inhibition (%) (SdiA [2]): 26 ± 3% | Antagonism 100 μM Inhibition (%) (SdiA [2]): -13 ± 11%

CCCCCCCCCC(=O)CC(=O)NC1CCCCC1=O (stereo not shown) [compound 15, reference compound]
Antagonism 1 μM Inhibition (%) (SdiA [2]): 16 ± 16% | Antagonism 100 μM Inhibition (%) (SdiA [2]): 13 ± 8%

O=C(CCc1ccc(Br)cc1)N[C@H]1CCOC1=O [compound 8, reference compound]
Antagonism 1 μM Inhibition (%) (SdiA [2]): 15 ± 8% | Antagonism 100 μM Inhibition (%) (SdiA [2]): 4 ± 3%

O=C(Cc1cccc(C(F)(F)F)c1)N[C@H]1CCOC1=O [E3]
Antagonism 1 μM Inhibition (%) (SdiA [2]): -14 ± 16% | Antagonism 100 μM Inhibition (%) (SdiA [2]): 5 ± 8%

O=C(N[C@H]1CCOC1=O)c1ccc(-c2ccccc2)cc1 [Q12]
Antagonism 1 μM Inhibition (%) (SdiA [2]): 20 ± 9% | Antagonism 100 μM Inhibition (%) (SdiA [2]): 26 ± 14%

O=C(N[C@H]1CCOC1=O)C1CCCCC1 [S5]
Antagonism 1 μM Inhibition (%) (SdiA [2]): 19 ± 4% | Antagonism 100 μM Inhibition (%) (SdiA [2]): 13 ± 10%

O=C(N[C@H]1CCOC1=O)c1ccc(Cl)cc1 [Q4]
Antagonism 1 μM Inhibition (%) (SdiA [2]): 30 ± 4% | Antagonism 100 μM Inhibition (%) (SdiA [2]): -25 ± 15%

CCCCCCCCCCCCCC(O)CC(=O)N[C@H]1CCOC1=O (stereo partly shown) [H6]
Antagonism 1 μM Inhibition (%) (SdiA [2]): 15 ± 1% | Antagonism 100 μM Inhibition (%) (SdiA [2]): 15 ± 13%
